Reference: patent US10851096B2, “Aryl and heteroaryl amides for use as anti-proliferative, anti-thrombotic, and anti-viral agents” (Rutgers, The State University of New Jersey, priority 2016, dated 2020)

How the values were obtained:
[1] = target: T1, Axl/Gas6 interaction (Homo sapiens, UniProt P30530); experiment: Pull-down competitive inhibition assay of Gas6 binding to His-tagged soluble Axl; settings: His-tagged soluble Axl Ig1/Ig2 with recombinant Gas6
T1 construct: His-tagged soluble Axl Ig1/Ig2 recombinant proteins; Amgen (Gas6 only)
Procedure: 400 nM His tagged-sAxl were co-incubated with increasing amounts of compound 1A (0, 5, 10 or 20 μM) in a 50 μl reaction mixture of Tris-Nacl Buffer (20 mM Tris.HCl, 150 mM NaCl, pH 8.0), and incubated at 37° C. for 60 minutes, with intermittent mixing. Thereafter, equal amount of hGas6 (100 nM) was added to each tube and incubated at 37° C. for another 60 minutes, with intermittent mixing. To each of the tubes, 1 μg of 6×-His antibody was added and the mixture was incubated overnight at 4° C. on a rotary mixer. After overnight incubation, 30 μl of Protein A/G PLUS agarose beads (Santa Cruz) were added into each of the tubes and incubated for an hour at 4° C. The mixtures were centrifuged and the pellets were then washed four times in ice-cold Nonidet P-40 buffer (20 mM Tris.HCl, 150 mM NaCl, pH 8.0 and 1% Nonidet P-40). Pellets were re-suspended in 30 μl of 2× sample loading dye and boiled for 5 min at 95° C. The samples were fractionated by SDS-PAGE and bound Gas6 was analyzed by immunoblotting.

[2] = target: T2, native Axl (Homo sapiens, UniProt P30530); experiment: Gas6-inducible phosphorylation of native Axl in MDA-MB-231 cells (immunoblot); assay type: cell-based; settings: MBA-MD-231 breast cancer cell line, FIG. 5A
T2 construct: Gas6-inducible phosphorylation of native Axl (pAxl); endogenous in cells; host or cells: MDA-MB-231
T2 sequence (P30530 26-894): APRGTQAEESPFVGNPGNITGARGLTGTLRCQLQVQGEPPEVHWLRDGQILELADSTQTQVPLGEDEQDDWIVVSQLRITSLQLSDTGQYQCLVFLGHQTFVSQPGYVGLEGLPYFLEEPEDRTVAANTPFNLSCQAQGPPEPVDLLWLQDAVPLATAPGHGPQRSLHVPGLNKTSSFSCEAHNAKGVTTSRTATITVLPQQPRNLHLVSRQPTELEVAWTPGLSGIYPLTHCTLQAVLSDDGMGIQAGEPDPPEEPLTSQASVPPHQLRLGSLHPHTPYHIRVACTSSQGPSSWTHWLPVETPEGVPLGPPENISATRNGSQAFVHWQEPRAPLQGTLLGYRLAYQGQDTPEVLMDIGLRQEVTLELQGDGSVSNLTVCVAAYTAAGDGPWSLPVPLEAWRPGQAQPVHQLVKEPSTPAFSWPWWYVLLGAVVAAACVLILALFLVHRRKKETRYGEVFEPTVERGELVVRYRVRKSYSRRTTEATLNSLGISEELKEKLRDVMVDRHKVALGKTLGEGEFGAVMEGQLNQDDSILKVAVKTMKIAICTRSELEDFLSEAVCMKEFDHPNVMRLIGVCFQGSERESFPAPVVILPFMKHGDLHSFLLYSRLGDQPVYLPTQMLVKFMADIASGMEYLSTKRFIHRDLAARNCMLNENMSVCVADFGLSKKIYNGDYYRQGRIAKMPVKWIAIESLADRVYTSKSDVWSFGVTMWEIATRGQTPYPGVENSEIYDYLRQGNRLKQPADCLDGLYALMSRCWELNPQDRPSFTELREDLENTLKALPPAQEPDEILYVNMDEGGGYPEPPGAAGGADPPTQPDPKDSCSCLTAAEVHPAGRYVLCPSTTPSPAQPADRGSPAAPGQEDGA
Procedure: Stable hAxl/IFN-γR1 CHO reporter cell lines (containing human Axl extracellular domains and transmembrane and intracellular domains of human IFN-γR1) were serum starved for 5 hrs±small molecule inhibitors and then stimulated with human Gas6 conditioned media±small molecule inhibitors for 30 minutes. For H1299 human non-small cell lung carcinoma and MDA-MB-231 human breast adenocarcinoma cell lines, the cells were serum starved overnight±small molecule inhibitors and stimulated with human Gas6 conditioned media±small molecule inhibitors for 30 minutes. Whole cell lysates of hAxl/IFN-γR1, H1299 and MDA-MB-231 cells were prepared using HNTG buffer (20 mM HEPES, pH 7.5, 150 mM NaCl, 10% glycerol, 1% Triton X-100, 1 mM PMSF, 1 mM Na3VO4, 10 mM Na2MoO4, 1 mM EDTA, 10 mM NaF and 20 μg/mL aprotinin). The resulting lysates were resolved on SDS-PAGE gel and immunoblotted with respective antibodies.
Immunoblot data were obtained within a linear range of exposure, and intensities were quantified by ImageJ. The levels of hAxl/IFN-γR1 cells lines activation were measured by pSTAT1 whereas the levels of H1299 and MDA-MB-231 cell lines activation were measured by pAxl signal intensities. Blots were normalized to intensities of respective β-actin or GAPDH protein loading controls. […]

[3] = system: H1299 cells; experiment: Gas6-inducible motility through transwell pore, H1299; assay type: cell-based, human; settings: pretreatment of H1299 cells
[4] = system: normal (non-cancerous) cells; experiment: Cytotoxicity assays using normal (non-cancerous) cells; assay type: cell-based
[5] = system: H1299 lung cancer xenograft; experiment: Mouse xenograft study, human H1299 lung cancer; assay type: in vivo; settings: for growth of tumor (tumor volume): 100 mg/kg IP
Procedure: 500,000 H1299 cells in 100 μl of PBS were injected subcutaneously into the right flank of 4-6 week NOD/SCIDg mice. Once tumors were palpable, the mice were randomized into 3 groups, each group had 6 mice: control mice were treated with vehicle (DMSO) intraperitoneally (IP) and the treatment groups with compound 1I (day 1, day 2, day 3 and day 4) or with compound 1Q (day 1, day 2, day 3, day 4, day 7 and day 8) at a dose of 100 mg/kg IP. Similar studies were conducted on compound 1Q dosed at 300 mg/kg in mice. Tumor size and body weights were measured three times a week and the tumor volume calculated.
Finally, based on the promising in vitro and cell culture experiments showing anti-Axl activity of certain compounds, the in vivo efficacies of compound 1I and compound 1Q using a murine SCID/human H1299 lung cancer xenograft model was investigated (FIG. 7A-E). As indicated, SCID mice were subcutaneously injected with 250,000 tumor cells in the hind flanks with human H1299 cells until palpable tumors were present. Subsequently, mice were injected every two days with vehicle, compound 1I or compound 1Q at a concentration of 100 mg/kg for up to 2 weeks. […] Taken together, these studies support the further development of TAM Ig1 inhibitors as anti-cancer therapeutics (FIGS. 7A-E).

SMILES | inhibition of Axl/Gas6 interaction in vitro [1] | inhibition of activation (phosphorylation) of Axl [2] | Gas6-inducible motility through an 8 μm pore [3] | cellular toxicity [4] | growth of tumor (tumor volume) [5] | tumor growth (volume) ([5]; 300 mg/kg IP)
Cc1noc(C)c1CSc1ccccc1C(=O)N1CCN(c2cccc(C(F)(F)F)c2)CC1 [1I] | able to inhibit in vitro the Axl/Gas6 interaction in a dose-dependent manner | potent inhibition | strongly suppressed | no discernible cellular toxicity | significantly suppressed growth of tumor | –
Cc1cc(CSc2ccccc2C(=O)NCCNc2ccc(C(F)(F)F)cc2[N+](=O)[O-])on1 [1Q] | able to inhibit in vitro the Axl/Gas6 interaction in a dose-dependent manner | potent inhibition | strongly suppressed | no discernible cellular toxicity | significantly suppressed growth of tumor | suppress tumor growth
